Publication PMC10224329, “Design, Synthesis, and Antiproliferative Activity of Benzopyran-4-One-Isoxazole Hybrid Compounds” (Molecules, 2023)

How the values were obtained:
Assay in all cases: Protein kinase assay (Reaction Biology)
Type in all cases: biochemical
PI3K (p110a/p65a) = biological target: T1, PI3K (p110a/p65a) (Homo sapiens, UniProt P42336); details: duplicate, 10 µM ATP, read-out: % Enzyme Activity (Relative to DMSO Controls) PI3K (p110a/p65a)
T1 construct: purchased Reaction Biology Corporation
Method: (§1) Therefore, selected compound 5a was screened against several protein kinases to explore the potential of these hybrid compounds as kinase inhibitors. The screening of compound 5a was performed on a panel of 9 kinases, viz., ABL1, c-Kit, c-Src, CDK2/cyclin A1, CSK, EGFR, mTOR/FRAP1, p38a/MAPK14, PKCa, and PI3K, at a dose of 20 μM. The respective positive controls were used for each kinase, and the kinase reaction was performed at 200 μM ATP concentration for all the kinases except for PI3K, which was performed at 10 µM ATP (Table 2). […] It appeared that compound 5a containing a 3-position substitution with an isoxazole ring and a 4-position with a carbonyl group has a detrimental effect on kinase inhibition. Previously 3-substituted benzopyran compound with a short alkyl chain of urea (NH-CO-NH-Et/Me/iPr) was reported with Abl kinase inhibitory activity in the range of 4–27 μM [36]. […] Due to prominent antiproliferative activity, these compounds may have some other targets for anticancer activity.
(§2) Compound 5a was tested at a single dose of 20 μM against 9 kinases, viz., Abl1, c-Kit, c-Src, CDK2/cyclin A1, CSK, EGFR, mTOR/FRAP1, p38a/MAPK14, PKCa, and PI3K using our previously reported protocol in duplicate by Reaction Biology Corporation. The respective positive controls, e.g., staurosporine for all the kinases, except SB202190 for P38a/MAP14 and P1-103 for mTOR/FRAP1, were used, and the kinase reaction was performed at 200 μM ATP concentration for all the kinases except for PI3K, which was performed at 10 µM ATP.

c-Kit = biological target: T2, c-Kit (Homo sapiens, UniProt P10721); details: duplicate, 200 μM ATP, read-out: % Enzyme Activity (Relative to DMSO Controls) c-Kit
T2 construct: purchased Reaction Biology Corporation
Method: as §1, §2

c-Src = biological target: T3, c-Src (Homo sapiens, UniProt P12931); details: duplicate, 200 μM ATP, read-out: % Enzyme Activity (Relative to DMSO Controls) c-Src
T3 construct: purchased Reaction Biology Corporation
Method: as §1, §2

EGFR = biological target: T4, EGFR (Homo sapiens, UniProt P00533); details: duplicate, 200 μM ATP, read-out: % Enzyme Activity (Relative to DMSO Controls) EGFR
T4 construct: purchased Reaction Biology Corporation
Method: as §1, §2

ABL1 = biological target: T5, ABL1 (Homo sapiens, UniProt P00519); details: duplicate, 200 μM ATP, read-out: % Enzyme Activity (Relative to DMSO Controls) ABL1
T5 construct: purchased Reaction Biology Corporation
Method: as §1, §2

p38a/MAPK14 = biological target: T6, p38a/MAPK14 (Homo sapiens, UniProt Q16539); details: duplicate, 200 μM ATP, read-out: % Enzyme Activity (Relative to DMSO Controls) p38a/MAPK14
T6 construct: purchased Reaction Biology Corporation
Method: as §1, §2

CDK2/cyclin A1 = biological target: T7, CDK2/cyclin A1 (Homo sapiens, UniProt P24941); details: duplicate, 200 μM ATP, read-out: % Enzyme Activity (Relative to DMSO Controls) CDK2/cyclin A1
T7 construct: purchased Reaction Biology Corporation
Method: as §1, §2

PKCa = biological target: T8, PKCa (Homo sapiens, UniProt P17252); details: duplicate, 200 μM ATP, read-out: % Enzyme Activity (Relative to DMSO Controls) PKCa
T8 construct: purchased Reaction Biology Corporation
Method: as §1, §2

mTOR/FRAP1 = biological target: T9, mTOR/FRAP1 (Homo sapiens, UniProt P42345); details: duplicate, 200 μM ATP, read-out: % Enzyme Activity (Relative to DMSO Controls) mTOR/FRAP1
T9 construct: purchased Reaction Biology Corporation
Method: as §1, §2

CSK = biological target: T10, CSK (Homo sapiens, UniProt P41240); details: duplicate, 200 μM ATP, read-out: % Enzyme Activity (Relative to DMSO Controls) CSK
T10 construct: purchased Reaction Biology Corporation
Method: as §1, §2

T10 sequence (P41240 whole entry): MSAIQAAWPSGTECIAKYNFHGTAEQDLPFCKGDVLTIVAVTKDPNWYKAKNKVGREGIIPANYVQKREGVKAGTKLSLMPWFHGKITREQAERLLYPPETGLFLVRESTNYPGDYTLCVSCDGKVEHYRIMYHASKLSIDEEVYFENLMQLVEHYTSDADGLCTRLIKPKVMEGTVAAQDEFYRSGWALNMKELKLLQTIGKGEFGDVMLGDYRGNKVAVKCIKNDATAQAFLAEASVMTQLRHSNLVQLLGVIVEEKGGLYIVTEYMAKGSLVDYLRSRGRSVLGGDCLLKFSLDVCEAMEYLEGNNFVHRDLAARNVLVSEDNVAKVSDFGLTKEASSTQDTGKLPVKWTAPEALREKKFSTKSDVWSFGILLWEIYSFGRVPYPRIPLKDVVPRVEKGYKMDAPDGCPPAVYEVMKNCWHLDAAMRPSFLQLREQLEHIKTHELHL
T3 sequence (P12931 whole entry): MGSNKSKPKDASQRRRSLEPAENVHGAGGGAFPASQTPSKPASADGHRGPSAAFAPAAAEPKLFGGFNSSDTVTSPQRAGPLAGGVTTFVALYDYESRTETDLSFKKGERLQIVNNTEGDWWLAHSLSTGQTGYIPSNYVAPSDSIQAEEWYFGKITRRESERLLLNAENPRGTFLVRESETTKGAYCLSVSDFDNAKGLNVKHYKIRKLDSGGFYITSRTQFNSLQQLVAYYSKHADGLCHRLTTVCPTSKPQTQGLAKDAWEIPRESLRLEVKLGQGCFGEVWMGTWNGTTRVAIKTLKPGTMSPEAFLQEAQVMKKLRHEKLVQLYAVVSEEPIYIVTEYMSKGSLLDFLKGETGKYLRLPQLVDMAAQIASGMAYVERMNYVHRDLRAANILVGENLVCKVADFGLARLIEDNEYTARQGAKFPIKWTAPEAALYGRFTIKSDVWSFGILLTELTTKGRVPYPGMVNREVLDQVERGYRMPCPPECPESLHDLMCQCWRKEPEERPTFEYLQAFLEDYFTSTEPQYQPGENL
T2 sequence (P10721 26-976): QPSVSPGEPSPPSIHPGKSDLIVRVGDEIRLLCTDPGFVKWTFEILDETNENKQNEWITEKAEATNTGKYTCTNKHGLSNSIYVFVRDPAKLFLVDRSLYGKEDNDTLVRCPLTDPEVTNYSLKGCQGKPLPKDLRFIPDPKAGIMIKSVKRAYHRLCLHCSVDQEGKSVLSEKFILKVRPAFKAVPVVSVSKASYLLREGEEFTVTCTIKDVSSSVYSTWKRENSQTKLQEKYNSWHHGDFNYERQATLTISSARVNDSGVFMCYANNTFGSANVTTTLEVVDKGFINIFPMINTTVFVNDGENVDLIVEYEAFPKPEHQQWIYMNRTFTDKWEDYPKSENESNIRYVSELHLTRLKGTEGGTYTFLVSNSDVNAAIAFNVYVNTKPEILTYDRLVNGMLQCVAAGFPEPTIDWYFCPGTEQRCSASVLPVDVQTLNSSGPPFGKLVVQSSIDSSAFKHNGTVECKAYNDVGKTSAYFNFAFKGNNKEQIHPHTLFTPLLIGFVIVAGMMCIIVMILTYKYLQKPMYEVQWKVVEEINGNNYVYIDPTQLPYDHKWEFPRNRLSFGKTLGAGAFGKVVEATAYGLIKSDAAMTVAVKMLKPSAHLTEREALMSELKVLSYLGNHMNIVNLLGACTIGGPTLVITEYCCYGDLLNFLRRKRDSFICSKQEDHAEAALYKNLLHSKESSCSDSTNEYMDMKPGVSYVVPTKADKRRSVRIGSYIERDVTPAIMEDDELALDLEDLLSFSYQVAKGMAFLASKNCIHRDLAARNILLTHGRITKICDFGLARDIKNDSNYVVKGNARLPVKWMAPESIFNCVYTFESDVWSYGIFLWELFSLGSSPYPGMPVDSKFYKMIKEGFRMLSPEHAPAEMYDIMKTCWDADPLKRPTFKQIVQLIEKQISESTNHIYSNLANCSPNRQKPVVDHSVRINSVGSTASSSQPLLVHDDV
T1 sequence (P42336 whole entry): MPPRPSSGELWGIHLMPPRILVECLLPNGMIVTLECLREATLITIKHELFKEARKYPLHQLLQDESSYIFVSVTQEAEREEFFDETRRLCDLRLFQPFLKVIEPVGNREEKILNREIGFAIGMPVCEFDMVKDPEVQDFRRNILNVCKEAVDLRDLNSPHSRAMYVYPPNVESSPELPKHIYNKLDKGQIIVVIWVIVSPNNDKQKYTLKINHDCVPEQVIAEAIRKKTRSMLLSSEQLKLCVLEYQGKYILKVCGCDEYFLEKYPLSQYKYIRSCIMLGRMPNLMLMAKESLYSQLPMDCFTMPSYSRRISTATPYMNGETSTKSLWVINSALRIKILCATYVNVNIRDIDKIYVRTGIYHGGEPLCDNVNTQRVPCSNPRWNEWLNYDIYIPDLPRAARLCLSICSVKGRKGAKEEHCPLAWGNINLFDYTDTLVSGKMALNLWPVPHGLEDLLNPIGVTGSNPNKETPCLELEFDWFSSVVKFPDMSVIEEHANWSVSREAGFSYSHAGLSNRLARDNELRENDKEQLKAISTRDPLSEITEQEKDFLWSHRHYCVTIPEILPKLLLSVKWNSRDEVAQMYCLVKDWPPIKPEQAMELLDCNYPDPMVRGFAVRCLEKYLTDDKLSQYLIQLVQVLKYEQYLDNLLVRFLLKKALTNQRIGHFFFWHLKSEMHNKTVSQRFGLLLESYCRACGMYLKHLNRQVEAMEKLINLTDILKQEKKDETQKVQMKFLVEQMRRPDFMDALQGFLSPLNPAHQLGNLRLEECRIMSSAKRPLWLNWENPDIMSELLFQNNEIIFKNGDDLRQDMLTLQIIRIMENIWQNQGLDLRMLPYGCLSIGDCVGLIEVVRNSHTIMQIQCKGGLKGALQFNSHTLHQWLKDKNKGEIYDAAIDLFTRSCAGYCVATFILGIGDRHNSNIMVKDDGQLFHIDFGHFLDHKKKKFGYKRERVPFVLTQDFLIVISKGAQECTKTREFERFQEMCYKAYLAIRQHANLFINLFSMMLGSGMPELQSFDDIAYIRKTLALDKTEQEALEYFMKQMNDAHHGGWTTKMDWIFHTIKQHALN
T4 sequence (P00533 25-1210): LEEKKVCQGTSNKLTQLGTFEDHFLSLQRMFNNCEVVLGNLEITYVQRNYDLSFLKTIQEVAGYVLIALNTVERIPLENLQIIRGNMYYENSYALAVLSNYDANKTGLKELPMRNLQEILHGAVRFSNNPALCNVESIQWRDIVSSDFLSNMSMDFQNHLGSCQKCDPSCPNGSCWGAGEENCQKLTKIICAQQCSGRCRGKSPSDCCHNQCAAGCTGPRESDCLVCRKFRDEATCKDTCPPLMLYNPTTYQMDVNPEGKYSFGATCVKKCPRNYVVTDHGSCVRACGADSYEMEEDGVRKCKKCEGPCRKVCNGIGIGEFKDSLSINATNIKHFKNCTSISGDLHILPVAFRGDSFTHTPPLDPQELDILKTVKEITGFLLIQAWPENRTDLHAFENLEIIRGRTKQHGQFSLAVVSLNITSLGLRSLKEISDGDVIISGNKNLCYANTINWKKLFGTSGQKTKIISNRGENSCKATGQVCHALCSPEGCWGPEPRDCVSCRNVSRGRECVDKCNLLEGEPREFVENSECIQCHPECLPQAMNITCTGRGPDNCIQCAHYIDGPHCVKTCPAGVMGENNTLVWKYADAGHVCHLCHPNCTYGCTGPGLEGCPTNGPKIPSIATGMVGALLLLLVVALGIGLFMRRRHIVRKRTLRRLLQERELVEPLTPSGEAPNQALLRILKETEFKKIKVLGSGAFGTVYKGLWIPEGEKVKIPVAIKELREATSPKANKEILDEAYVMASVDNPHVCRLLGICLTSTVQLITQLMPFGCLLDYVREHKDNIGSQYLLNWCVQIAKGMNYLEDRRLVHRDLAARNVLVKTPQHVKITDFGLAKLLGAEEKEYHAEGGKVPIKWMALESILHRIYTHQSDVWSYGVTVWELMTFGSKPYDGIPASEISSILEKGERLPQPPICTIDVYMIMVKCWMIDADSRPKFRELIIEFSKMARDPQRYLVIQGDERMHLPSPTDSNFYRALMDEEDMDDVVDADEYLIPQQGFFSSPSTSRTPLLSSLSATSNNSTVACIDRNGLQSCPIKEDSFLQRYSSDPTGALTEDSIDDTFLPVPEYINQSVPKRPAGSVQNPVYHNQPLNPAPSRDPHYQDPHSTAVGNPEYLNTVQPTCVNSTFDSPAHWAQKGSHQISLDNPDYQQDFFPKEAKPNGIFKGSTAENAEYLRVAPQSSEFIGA

Work on `Cc1noc(C)c1C(=O)OCc1coc2ccccc2c1=O` [Compound 5a, (4-Oxo-4H-1-benzopyran-3-yl)methyl 3,5-dimethylisoxazole-4-carboxylate] yielded a remaining activity at 20 µM (PI3K (p110a/p65a)) of 110%, a remaining activity at 20 µM (c-Kit) of 95.3% and a remaining activity at 20 µM (c-Src) of 113%. The remaining activity at 20 µM (EGFR) was 99.8%, the remaining activity at 20 µM (ABL1) was 96.9% and the remaining activity at 20 µM (p38a/MAPK14) was 83.1%. It also gave a remaining activity at 20 µM (CDK2/cyclin A1) of 105%, a remaining activity at 20 µM (PKCa) of 103% and a remaining activity at 20 µM (mTOR/FRAP1) of 112%. The remaining activity at 20 µM (CSK) was 93%.
